The values below come from patent EP1925615B1, “Method of fluorine-18 labelling of tropane derivatives” (Orphachem, priority 2006, dated 2008).

Series [1] is described as follows: Chemical and radiochemical stability of the radiotracer preparation by HPLC. In kind it is physicochemical. The note with it: preparation ready for i.v. injection (physiological saline, ethanol below 10%); HPLC D at regular 15-min intervals during 120 min. The procedure: Quality controls of [^18F]LBT-999 ([^18F]-10) were performed on an aliquot of the preparation ready for i.v. injection. The radiotracer preparation was a clear and colourless solution with a measured pH between 5 and 7.
Quality control of [^18F]LBT-999 ([^18F]-10). The radiotracer preparation was visually inspected for clarity, absence of colour and particulates. An aliquot of the preparation was removed for determination of pH using standard pH-paper. Chemical and radiochemical purities were also assessed on this aliquot by HPLC (HPLC D), with a sample of authentic 10 (tR : 2.25 min) which synthesis and characterization were disclosed in Dollé F et al., 2006. Particular attention was paid to the absence of non-radioactive precursor 9 (tR: 3.45 min). Chemical and radiochemical stability of the entire preparation was tested by HPLC (HPLC D) at regular 15-min intervals during 120 min. Specific radioactivity of the radiotracer was calculated from three consecutive HPLC (HPLC D) analyses (average) and determined as follows: The area of the UV absorbance peak corresponding to the radiolabelled product was measured (integrated) on the HPLC chromatogram and compared to a standard curve relating mass to UV absorbance.

The target of series [2] is serotonine transporter (Homo sapiens, UniProt P31645). Conditions: cited from earlier work.
The target in series [3] is dopamine transporter (DAT). Conditions: dopamine transporter (DAT) ligand; cited from earlier work.
Series [4] has as its target norepinephrine transporter (Homo sapiens, UniProt P23975). The note with it: cited from earlier work.

serotonine transporter, sequence (P31645 whole entry): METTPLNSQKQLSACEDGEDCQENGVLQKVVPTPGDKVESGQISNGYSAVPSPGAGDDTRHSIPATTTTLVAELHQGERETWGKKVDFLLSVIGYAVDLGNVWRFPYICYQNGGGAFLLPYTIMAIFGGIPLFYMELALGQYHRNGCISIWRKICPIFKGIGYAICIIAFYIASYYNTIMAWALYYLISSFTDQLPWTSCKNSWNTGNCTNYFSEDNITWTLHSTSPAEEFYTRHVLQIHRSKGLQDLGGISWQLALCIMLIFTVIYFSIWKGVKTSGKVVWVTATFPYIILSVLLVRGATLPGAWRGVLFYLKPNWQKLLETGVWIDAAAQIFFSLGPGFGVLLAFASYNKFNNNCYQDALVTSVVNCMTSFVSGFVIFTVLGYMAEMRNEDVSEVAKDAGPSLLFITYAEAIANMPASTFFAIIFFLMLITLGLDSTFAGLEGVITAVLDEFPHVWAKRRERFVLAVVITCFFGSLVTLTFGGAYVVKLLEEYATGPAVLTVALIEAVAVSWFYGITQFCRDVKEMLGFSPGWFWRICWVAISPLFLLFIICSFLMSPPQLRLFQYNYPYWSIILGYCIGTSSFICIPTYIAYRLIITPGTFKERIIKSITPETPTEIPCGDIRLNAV
norepinephrine transporter, sequence (P23975 whole entry): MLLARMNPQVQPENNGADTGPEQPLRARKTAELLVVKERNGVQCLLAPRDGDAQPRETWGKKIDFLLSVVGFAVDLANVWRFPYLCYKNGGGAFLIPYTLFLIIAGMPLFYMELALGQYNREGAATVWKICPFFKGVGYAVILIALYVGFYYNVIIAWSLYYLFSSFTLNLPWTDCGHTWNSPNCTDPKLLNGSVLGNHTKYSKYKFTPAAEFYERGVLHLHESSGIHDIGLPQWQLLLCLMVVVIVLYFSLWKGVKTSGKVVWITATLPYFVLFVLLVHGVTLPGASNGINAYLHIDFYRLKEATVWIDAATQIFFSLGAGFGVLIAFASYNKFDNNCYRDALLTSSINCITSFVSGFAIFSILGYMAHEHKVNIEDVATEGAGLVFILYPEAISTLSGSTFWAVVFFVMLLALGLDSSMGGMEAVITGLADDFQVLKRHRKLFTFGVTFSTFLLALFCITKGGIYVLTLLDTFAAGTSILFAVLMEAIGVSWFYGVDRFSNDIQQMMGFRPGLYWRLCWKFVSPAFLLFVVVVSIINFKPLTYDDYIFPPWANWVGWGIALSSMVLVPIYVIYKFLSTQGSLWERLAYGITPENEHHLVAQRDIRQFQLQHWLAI

On to `COC(=O)[C@H]1[C@@H](c2ccc(C)cc2)C[C@@H]2CC[C@H]1N2C/C=C/C[18F]` [[^18F]LBT-999, 8-((E)-4-[^18F]fluoro-but-2-enyl)-3β-p-tolyl-8-aza-bicyclo-[3.2.1]octane-2β-carboxylic acid methyl ester], for which the “chemically and radiochemically stable” value in series [1] was “at least 120 minutes”.
On to `COC(=O)[C@H]1[C@@H](c2ccc(C)cc2)C[C@@H]2CC[C@H]1N2C/C=C/CF` [LBT-999, 8-((E)-4-fluoro-but-2-enyl)-3β-p-tolyl-8-aza-bicyclo[3.2.1]octane-2β-carboxylic acid methyl ester], for which the IC50 in series [2] and in series [4] was > 1000 nM in each case. Besides, the Kd in series [3] was 9 nM.

By IC50 is commonly meant the concentration that inhibits the measured activity by half. What is called Kd is the equilibrium constant for the complex coming apart.
